Literature values in patent publication US9233112B2, “Pharmaceutical compositions of cefixime” (LUPIN LIMITED, priority 2006, dated 2016).

SMILES: C=CC1=C(C(=O)O)N2C(=O)[C@@H](NC(=O)/C(=N\OCC(=O)O)c3csc(N)n3)[C@H]2SC1 [Cefixime]
- Solubility in water: poorly soluble in water
